# What was measured:
# Experiment in all cases: relative viability (nuclei count vs DMSO), 5 days (fraction); higher = more cells survive
# GSK-J4 + Trametinib = compound: CCOC(=O)CCNc1cc(N2CCc3ccccc3CC2)nc(-c2ccccn2)n1 [GSK-J4] + CC(=O)Nc1cccc(-n2c(=O)n(C3CC3)c(=O)c3c(Nc4ccc(I)cc4F)n(C)c(=O)c(C)c32)c1 [Trametinib] (partner 0.02 µM)
# Summary of the method: (§1)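 After 5 days of treatment, lung cancer cells in 1536-well plates were fixed and stained in a single step (final 0.05% Triton X-100, 1% formaldehyde, 1 ug/ml Hoechst) and their nuclei counted on 4× images. Treatment had been applied by pin tool the day after seeding as one drug alone or as a fixed anchor-drug dose with five library-drug doses (not always all listed) in √10 steps. Relative viability is the nuclei count of treated wells divided by that of vehicle wells, and values are medians of duplicate plates.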
# GSK-J4 + Phenformin = compound: CCOC(=O)CCNc1cc(N2CCc3ccccc3CC2)nc(-c2ccccn2)n1 [GSK-J4] + N=C(N)NC(=N)NCCc1ccccc1 [Phenformin] (partner 250 µM)
# Summary of the method: as §1
# GSK-J4 + Decitabine = compound: CCOC(=O)CCNc1cc(N2CCc3ccccc3CC2)nc(-c2ccccn2)n1 [GSK-J4] + Nc1ncn([C@H]2C[C@H](O)[C@@H](CO)O2)c(=O)n1 [Decitabine] (partner 2 µM)
# Summary of the method: as §1
# AZ3146 + Navitoclax = compound: CN1CCC(CC1)OC2=CC(=C(C=C2)NC3=NC=C4C(=N3)N(C(=O)N4C)C5CCCC5)OC [AZ3146] + CC1(C)CCC(c2ccc(Cl)cc2)=C(CN2CCN(c3ccc(C(=O)NS(=O)(=O)c4ccc(N[C@H](CCN5CCOCC5)CSc5ccccc5)c(S(=O)(=O)C(F)(F)F)c4)cc3)CC2)C1 [Navitoclax] (partner 0.5 µM)
# Summary of the method: as §1
Cell Line,relative viability (GSK-J4 + Trametinib; first compound 0.5 µM),relative viability (GSK-J4 + Trametinib; first compound 1.581 µM),relative viability (GSK-J4 + Trametinib; first compound 5 µM),relative viability (GSK-J4 + Trametinib; first compound 15.81 µM),relative viability (GSK-J4 + Trametinib; first compound 50 µM),relative viability (GSK-J4 + Phenformin; first compound 0.5 µM),relative viability (GSK-J4 + Phenformin; first compound 1.581 µM),relative viability (GSK-J4 + Phenformin; first compound 5 µM),relative viability (GSK-J4 + Phenformin; first compound 15.81 µM),relative viability (GSK-J4 + Phenformin; first compound 50 µM),relative viability (GSK-J4 + Decitabine; first compound 0.5 µM),relative viability (GSK-J4 + Decitabine; first compound 1.581 µM),relative viability (GSK-J4 + Decitabine; first compound 5 µM),relative viability (GSK-J4 + Decitabine; first compound 15.81 µM),relative viability (GSK-J4 + Decitabine; first compound 50 µM),relative viability (AZ3146 + Navitoclax; first compound 0.08 µM),relative viability (AZ3146 + Navitoclax; first compound 0.253 µM),relative viability (AZ3146 + Navitoclax; first compound 0.8 µM),relative viability (AZ3146 + Navitoclax; first compound 2.53 µM),relative viability (AZ3146 + Navitoclax; first compound 8 µM)
NCI-H1355,0.371,0.4,0.486,0.396,0.327,0.447,0.39,0.333,0.359,0.36,0.354,0.364,0.342,0.325,0.335,0.974,0.872,1.04,0.922,1.01
NCI-H2085,0.482,0.663,0.586,0.517,0.57,0.724,0.674,0.671,0.508,0.582,0.511,0.501,0.512,0.548,0.491,1.03,1.14,1.06,1.08,1.03
NCI-H322M,0.513,0.482,0.623,0.457,0.503,0.788,0.553,0.806,0.729,0.545,0.687,0.687,0.81,0.379,0.671,1.24,1.12,1.1,1.24,1.23
NCI-H1915,0.299,0.302,,0.28,0.293,0.36,0.327,,0.369,0.388,0.253,0.235,,0.239,0.247,0.783,0.807,0.807,0.816,0.814
HOP-62,0.39,0.309,0.334,0.337,0.301,0.612,0.548,0.558,0.665,0.528,0.257,0.233,0.2,0.193,0.225,1.08,1.05,0.938,1.13,0.913
LXF-289,0.696,0.592,0.688,0.654,0.584,0.506,0.445,0.408,0.53,0.515,0.388,0.376,0.403,0.394,0.406,0.94,1.03,0.883,0.943,0.926
NCI-H441,0.498,0.386,0.492,0.383,0.352,0.819,0.852,0.641,0.805,0.809,0.203,0.279,0.205,0.217,0.271,0.416,0.576,0.53,0.547,0.683
BEN,1.1,0.883,0.88,0.896,0.917,0.25,0.261,,0.276,0.254,0.762,0.511,0.489,0.679,0.597,,0.0708,0.0628,0.0467,0.176
NCI-H2009,0.262,0.266,0.195,0.252,0.199,0.456,0.419,0.354,0.341,0.222,0.348,0.358,0.313,0.319,0.297,1.02,1.27,1.2,1.25,1.03
NCI-H1755,0.809,0.72,0.754,0.649,0.65,0.606,0.5,0.367,0.49,0.56,0.727,0.569,0.641,0.61,0.709,0.992,1,0.948,1.03,1.01
NCI-H520,0.625,0.486,0.577,0.559,0.472,0.582,0.478,0.46,0.303,0.445,0.51,0.336,0.541,0.502,0.446,1.18,1.06,1.04,1.1,0.981
LOU-NH91,0.816,0.427,0.638,0.718,0.803,0.716,0.69,0.561,0.647,0.802,0.789,0.798,0.703,0.774,0.805,0.685,0.609,0.76,0.697,0.7
LU99A,0.551,0.485,,0.441,0.35,0.866,0.671,,0.757,0.554,0.791,0.725,,0.846,0.554,0.698,0.764,1.01,0.868,0.834
PC-14,0.68,0.663,0.503,0.738,0.691,0.624,0.555,0.432,0.537,0.53,0.231,0.218,0.259,0.232,0.268,0.959,1.02,1.12,1.11,0.898
LC-2-ad,0.847,0.76,0.835,0.908,0.886,0.635,0.499,0.495,0.568,0.432,0.746,0.803,0.866,0.776,0.793,0.425,0.385,0.649,0.519,0.685
NCI-H2126,0.567,0.575,0.566,0.503,0.503,0.537,0.505,0.55,0.485,0.456,0.625,0.573,0.59,0.53,0.539,0.8,0.843,0.896,0.861,0.849

# — the supplement of paper PMC10307832
